# Results: patent US20090098130A1, “GLUCAGON-LIKE PROTEIN-1 RECEPTOR (GLP-1R) AGONIST COMPOUNDS” (priority 2007, published 2009)
# Non-standard residues stand in square brackets, D forms with d. Residues, ends and D or L forms follow the SMILES beside them. Aib = CC(C)(N)C(=O)O
# Test system: pancreatic β cells
# Experiment: glucose-stimulated insulin secretion (GSIS) assay
# Type: cell-based
# Conditions: GA targeting peptide; insulin secretion from pancreatic β cell cultures in vitro with glucose
# Method: Briefly, glucose and GA targeting peptide was added at various concentrations to pancreatic β cell cultures, and insulin secretion was detected by measuring insulin levels over time. EC50 was calculated for each peptide.
# The ability of these GA targeting agent-linker conjugates to stimulate […] secretion in vitro was measured using the GSIS assay described in Example 27. […] Each of these peptides contained a side-chain modified Lys residue according to the scheme illustrated in FIG. 30 at a different position.
row,Compound,EC50 [µM]
1,CC[C@H](C)[C@H](NC(=O)[C@H](Cc1ccccc1)NC(=O)[C@H](CCC(=O)O)NC(=O)[C@H](CCCCN)NC(=O)[C@H](C)NC(=O)[C@H](C)NC(=O)[C@H](CCC(N)=O)NC(=O)[C@H](CC(=O)O)NC(=O)[C@H](CCC(=O)O)NC(=O)[C@H](CC(C)C)NC(=O)[C@H](Cc1ccc(O)cc1)NC(=O)[C@H](CO)NC(=O)[C@H](CO)NC(=O)[C@@H](NC(=O)[C@H](CC(=O)O)NC(=O)[C@H](CO)NC(=O)[C@@H](NC(=O)[C@H](Cc1ccccc1)NC(=O)[C@@H](NC(=O)CNC(=O)[C@H](CCC(=O)O)NC(=O)C(C)(C)NC(=O)[C@@H](N)Cc1c[nH]cn1)[C@@H](C)O)[C@@H](C)O)C(C)C)C(=O)N[C@@H](C)C(=O)N[C@@H](Cc1c[nH]c2ccccc12)C(=O)N[C@@H](CC(C)C)C(=O)N[C@H](C(=O)N[C@@H](CCCCN)C(=O)NC(C)(C)C(=O)N[C@@H](CCCNC(=N)N)C(N)=O)C(C)C [SEQ ID NO: 46] (H-H[Aib]EGTFTSDVSSYLEDQAAKEFIAWLVK[Aib]R-NH2),< 10
2,CC[C@H](C)[C@H](NC(=O)[C@H](Cc1ccccc1)NC(=O)[C@H](CCC(=O)O)NC(=O)[C@H](CCCCN)NC(=O)[C@H](C)NC(=O)[C@H](C)NC(=O)[C@H](CCC(N)=O)NC(=O)[C@H](CCCCN)NC(=O)[C@H](CCC(=O)O)NC(=O)[C@H](CC(C)C)NC(=O)[C@H](Cc1ccc(O)cc1)NC(=O)[C@H](CO)NC(=O)[C@H](CO)NC(=O)[C@@H](NC(=O)[C@H](CC(=O)O)NC(=O)[C@H](CO)NC(=O)[C@@H](NC(=O)[C@H](Cc1ccccc1)NC(=O)[C@@H](NC(=O)CNC(=O)[C@H](CCC(=O)O)NC(=O)C(C)(C)NC(=O)[C@@H](N)Cc1c[nH]cn1)[C@@H](C)O)[C@@H](C)O)C(C)C)C(=O)N[C@@H](C)C(=O)N[C@@H](Cc1c[nH]c2ccccc12)C(=O)N[C@@H](CC(C)C)C(=O)N[C@H](C(=O)N[C@@H](CCCCN)C(=O)NC(C)(C)C(=O)N[C@@H](CCCNC(=N)N)C(N)=O)C(C)C [SEQ ID NO: 47] (H-H[Aib]EGTFTSDVSSYLEKQAAKEFIAWLVK[Aib]R-NH2),< 10
3,CC[C@H](C)[C@H](NC(=O)[C@H](C)NC(=O)[C@H](CCC(N)=O)NC(=O)CNC(=O)[C@H](CCC(=O)O)NC(=O)[C@H](CC(C)C)NC(=O)[C@H](Cc1ccc(O)cc1)NC(=O)[C@H](CO)NC(=O)[C@H](CO)NC(=O)[C@@H](NC(=O)[C@H](CC(=O)O)NC(=O)[C@H](CO)NC(=O)[C@@H](NC(=O)[C@H](Cc1ccccc1)NC(=O)[C@@H](NC(=O)CNC(=O)[C@H](CCC(=O)O)NC(=O)C(C)(C)NC(=O)[C@@H](N)Cc1c[nH]cn1)[C@@H](C)O)[C@@H](C)O)C(C)C)C(=O)N[C@@H](CCCCN)C(=O)N[C@@H](CCC(=O)O)C(=O)N[C@@H](Cc1ccccc1)C(=O)N[C@H](C(=O)N[C@@H](C)C(=O)N[C@@H](Cc1c[nH]c2ccccc12)C(=O)N[C@@H](CC(C)C)C(=O)N[C@H](C(=O)N[C@@H](CCCCN)C(=O)NC(C)(C)C(=O)N[C@@H](CCCNC(=N)N)C(N)=O)C(C)C)[C@@H](C)CC [SEQ ID NO: 49] (H-H[Aib]EGTFTSDVSSYLEGQAIKEFIAWLVK[Aib]R-NH2),< 10
4,CC[C@H](C)[C@H](NC(=O)[C@H](Cc1ccccc1)NC(=O)[C@H](CCC(=O)O)NC(=O)[C@H](CCCCN)NC(=O)[C@H](CC(C)C)NC(=O)[C@H](C)NC(=O)[C@H](CCC(N)=O)NC(=O)CNC(=O)[C@H](CCC(=O)O)NC(=O)[C@H](CC(C)C)NC(=O)[C@H](Cc1ccc(O)cc1)NC(=O)[C@H](CO)NC(=O)[C@H](CO)NC(=O)[C@@H](NC(=O)[C@H](CC(=O)O)NC(=O)[C@H](CO)NC(=O)[C@@H](NC(=O)[C@H](Cc1ccccc1)NC(=O)[C@@H](NC(=O)CNC(=O)[C@H](CCC(=O)O)NC(=O)C(C)(C)NC(=O)[C@@H](N)Cc1c[nH]cn1)[C@@H](C)O)[C@@H](C)O)C(C)C)C(=O)N[C@@H](C)C(=O)N[C@@H](Cc1c[nH]c2ccccc12)C(=O)N[C@@H](CC(C)C)C(=O)N[C@H](C(=O)N[C@@H](CCCCN)C(=O)NC(C)(C)C(=O)N[C@@H](CCCNC(=N)N)C(N)=O)C(C)C [SEQ ID NO: 50] (H-H[Aib]EGTFTSDVSSYLEGQALKEFIAWLVK[Aib]R-NH2),< 10
5,CC[C@H](C)[C@H](NC(=O)[C@H](Cc1ccccc1)NC(=O)[C@H](CCC(=O)O)NC(=O)[C@H](CCCNC(=N)N)NC(=O)[C@H](C)NC(=O)[C@H](C)NC(=O)[C@H](CCC(N)=O)NC(=O)CNC(=O)[C@H](CCC(=O)O)NC(=O)[C@H](CC(C)C)NC(=O)[C@H](Cc1ccc(O)cc1)NC(=O)[C@H](CO)NC(=O)[C@H](CO)NC(=O)[C@@H](NC(=O)[C@H](CC(=O)O)NC(=O)[C@H](CO)NC(=O)[C@@H](NC(=O)[C@H](Cc1ccccc1)NC(=O)[C@@H](NC(=O)CNC(=O)[C@H](CCC(=O)O)NC(=O)C(C)(C)NC(=O)[C@@H](N)Cc1c[nH]cn1)[C@@H](C)O)[C@@H](C)O)C(C)C)C(=O)N[C@@H](C)C(=O)N[C@@H](Cc1c[nH]c2ccccc12)C(=O)N[C@@H](CC(C)C)C(=O)N[C@H](C(=O)N[C@@H](CCCCN)C(=O)NC(C)(C)C(=O)N[C@@H](CCCNC(=N)N)C(N)=O)C(C)C [SEQ ID NO: 51] (H-H[Aib]EGTFTSDVSSYLEGQAAREFIAWLVK[Aib]R-NH2),< 10
6,CC[C@H](C)[C@H](NC(=O)[C@H](Cc1ccccc1)NC(=O)[C@H](CCC(=O)O)NC(=O)[C@H](CCCCN)NC(=O)[C@H](C)NC(=O)[C@H](C)NC(=O)[C@H](CCC(N)=O)NC(=O)CNC(=O)[C@H](CCC(=O)O)NC(=O)[C@H](CC(C)C)NC(=O)[C@H](Cc1ccc(O)cc1)NC(=O)[C@H](CO)NC(=O)[C@H](CO)NC(=O)[C@@H](NC(=O)[C@H](CC(=O)O)NC(=O)[C@H](CO)NC(=O)[C@@H](NC(=O)[C@H](Cc1ccccc1)NC(=O)[C@@H](NC(=O)CNC(=O)[C@H](CCC(=O)O)NC(=O)C(C)(C)NC(=O)[C@@H](N)Cc1c[nH]cn1)[C@@H](C)O)[C@@H](C)O)C(C)C)C(=O)N[C@@H](C)C(=O)N[C@@H](Cc1ccccc1)C(=O)N[C@@H](CC(C)C)C(=O)N[C@H](C(=O)N[C@@H](CCCCN)C(=O)NC(C)(C)C(=O)N[C@@H](CCCNC(=N)N)C(N)=O)C(C)C [SEQ ID NO: 53],< 10
7,CC[C@H](C)[C@H](NC(=O)[C@H](Cc1ccccc1)NC(=O)[C@H](CCC(=O)O)NC(=O)[C@H](CCCCN)NC(=O)[C@H](C)NC(=O)[C@H](C)NC(=O)[C@H](CCC(N)=O)NC(=O)CNC(=O)[C@H](CCC(=O)O)NC(=O)[C@H](CC(C)C)NC(=O)[C@H](Cc1ccc(O)cc1)NC(=O)[C@H](CO)NC(=O)[C@H](CO)NC(=O)[C@@H](NC(=O)[C@H](CC(=O)O)NC(=O)[C@H](CO)NC(=O)[C@@H](NC(=O)[C@H](Cc1ccccc1)NC(=O)[C@@H](NC(=O)CNC(=O)[C@H](CCC(=O)O)NC(=O)C(C)(C)NC(=O)[C@@H](N)Cc1c[nH]cn1)[C@@H](C)O)[C@@H](C)O)C(C)C)C(=O)N[C@@H](C)C(=O)N[C@@H](Cc1c[nH]c2ccccc12)C(=O)N[C@@H](CC(C)C)C(=O)N[C@H](C(=O)N[C@@H](CCCCN)C(=O)NC(C)(C)C(=O)N[C@@H](CCCNC(=N)N)C(N)=O)[C@@H](C)CC [SEQ ID NO: 54],< 10
8,CC[C@H](C)[C@H](NC(=O)[C@H](Cc1ccccc1)NC(=O)[C@H](CCC(=O)O)NC(=O)[C@H](CCCCN)NC(=O)[C@H](C)NC(=O)[C@H](C)NC(=O)[C@H](CCC(N)=O)NC(=O)CNC(=O)[C@H](CCC(=O)O)NC(=O)[C@H](CC(C)C)NC(=O)[C@H](Cc1ccc(O)cc1)NC(=O)[C@H](CO)NC(=O)[C@H](CO)NC(=O)[C@@H](NC(=O)[C@H](CC(=O)O)NC(=O)[C@H](CO)NC(=O)[C@@H](NC(=O)[C@H](Cc1ccccc1)NC(=O)[C@@H](NC(=O)CNC(=O)[C@H](CCC(=O)O)NC(=O)C(C)(C)NC(=O)[C@@H](N)Cc1c[nH]cn1)[C@@H](C)O)[C@@H](C)O)C(C)C)C(=O)N[C@@H](C)C(=O)N[C@@H](Cc1c[nH]c2ccccc12)C(=O)N[C@@H](CC(C)C)C(=O)N[C@H](C(=O)N[C@@H](CCCNC(=N)N)C(=O)NC(C)(C)C(=O)N[C@@H](CCCNC(=N)N)C(N)=O)C(C)C [SEQ ID NO: 55],< 10
9,CC[C@H](C)[C@H](NC(=O)[C@H](Cc1ccccc1)NC(=O)[C@H](CCC(=O)O)NC(=O)[C@H](CCCCN)NC(=O)[C@@H](NC(=O)[C@H](C)NC(=O)[C@H](CCC(N)=O)NC(=O)[C@H](CCC(=O)O)NC(=O)[C@H](CCC(=O)O)NC(=O)[C@H](CC(C)C)NC(=O)[C@H](Cc1ccc(O)cc1)NC(=O)[C@H](CO)NC(=O)[C@H](CO)NC(=O)[C@@H](NC(=O)[C@H](CC(=O)O)NC(=O)[C@H](CO)NC(=O)[C@@H](NC(=O)[C@H](Cc1ccccc1)NC(=O)[C@@H](NC(=O)CNC(=O)[C@H](CCC(=O)O)NC(=O)C(C)(C)NC(=O)[C@@H](N)Cc1c[nH]cn1)[C@@H](C)O)[C@@H](C)O)C(C)C)C(C)C)C(=O)N[C@@H](C)C(=O)N[C@@H](Cc1c[nH]c2ccccc12)C(=O)N[C@@H](CC(C)C)C(=O)N[C@H](C(=O)N[C@@H](CCCCN)C(=O)NC(C)(C)C(=O)N[C@@H](CCCNC(=N)N)C(N)=O)[C@@H](C)CC [SEQ ID NO: 57],< 10
10,CC[C@H](C)[C@H](NC(=O)[C@H](Cc1ccccc1)NC(=O)[C@H](CCC(=O)O)NC(=O)[C@H](CCCCN)NC(=O)[C@@H](NC(=O)[C@H](C)NC(=O)[C@H](CCC(N)=O)NC(=O)[C@H](CCC(=O)O)NC(=O)[C@H](CCC(=O)O)NC(=O)[C@H](Cc1ccccc1)NC(=O)[C@H](Cc1ccc(O)cc1)NC(=O)[C@H](CO)NC(=O)[C@H](CO)NC(=O)[C@@H](NC(=O)[C@H](CC(=O)O)NC(=O)[C@H](CO)NC(=O)[C@@H](NC(=O)[C@H](Cc1ccccc1)NC(=O)[C@@H](NC(=O)CNC(=O)[C@H](CCC(=O)O)NC(=O)C(C)(C)NC(=O)[C@@H](N)Cc1c[nH]cn1)[C@@H](C)O)[C@@H](C)O)C(C)C)C(C)C)C(=O)N[C@@H](C)C(=O)N[C@@H](Cc1c[nH]c2ccccc12)C(=O)N[C@@H](CC(C)C)C(=O)N[C@H](C(=O)N[C@@H](CCCCN)C(=O)NC(C)(C)C(=O)N[C@@H](CCCNC(=N)N)C(N)=O)[C@@H](C)CC [SEQ ID NO: 58] (H-H[Aib]EGTFTSDVSSYFEEQAVKEFIAWLIK[Aib]R-NH2),< 10
